In patent publication US20150126467A1, “USE OF ALGINATE OLIGOMERS TO ENHANCE THE EFFECTS OF ANTIFUNGAL AGENTS” (AlgiIPharma AS, priority 2011, published 2015):
In brackets after ≈: the same amount, converted by molar mass.

What was measured:
Format in all cases: cell-based
[1] = tested on: Cryptococcus neoformans CCUG 23451; experiment: Robotic MIC assay, Cryptococcus neoformans (Example 6)
Procedure: Cryptococcus sp. was grown at 30° C. for 96 h on YM-agar. Spores and aerial mycelium was cut out from the agar, suspended in 1 ml YM-broth and dispersed with glass beads (1 mm) in a mini bead beater for 2 min. The suspension was added glycerol to 10% and frozen at −80° C. Each batch of frozen stock culture was then characterized in separate growth experiments using Mueller-Hinton and RPMI to determine the minimum amount of inoculum giving satisfactory growth after 48 h under the conditions relevant for the MIC assay. This inoculum procedure is used in order to reduce day to day variation in bioassays.
Robotic minimum inhibitory concentration (MIC) assay was performed as follows. OligoG CF-5/20 was dissolved in medium (Mueller-Hinton, RPMI with 2% glucose, Sabouraud or YM) to 1.25 times of the desired assay concentrations (2, 6 and 10%). […].
Two-fold serial dilutions of antifungal agents were made in medium with different concentrations of OligoG CF-5/20, and the solutions were placed in four parallel wells in Nunc 384-well micro plates (30 μl per well in Nunc 242757 microplates). A group of 8 wells with no addition of antifungal agents for each OligoG CF-5/20 concentration was included on each micro plate as growth reference. Each well in the 384-well assay plates was added 7.5 μl of the medium innoculated with frozen stock culture of the relevant strains.
The microplates were placed in plastic bags and incubated without shaking at 34° C. The optical density at 600 nm in the microwells was measured after certain time points from 24 h to 96 h of incubation. […]

[2] = tested on: Candida albicans, CCUG 39343; experiment: Robotic MIC assay (Example 1); settings: for Minimum Inhibitory Concentration (MIC): 24 hours; for reduction in MIC values: comparing 0 and 10% G-block
Procedure: (§1) A robotic MIC Assay was performed as follows. OligoG CF-5/20 were dissolved in medium (Mueller-Hinton broth or M19 broth depending on experiment) to 1.25 times of the desired assay concentrations (2, 6 and 10%). The antifungal agents under test were dissolved in medium without OligoG CF-5/20 and in medium with OligoG CF-5/20 at a concentration of 1.25 times the highest desired assay concentrations. For experiments where the effect of adding different concentrations of Na^+ was investigated, NaCl was dissolved in medium to the desired concentrations (10, 30 and 50 mM).
(§2) Two-fold serial dilutions of antifungal agents were made in medium with different concentrations of OligoG CF-5/20, and the solutions were placed in four parallel wells in Nunc 384-well micro plates (30 μl per well in Nunc 242757 microplates). A group of 8 wells with no addition of antifungal agents for each OligoG CF-5/20 concentration was included on each microplate as growth reference. To each well in the 384-well assay plates was added 7.5 μl of medium inoculated with a frozen stock culture of Candida albicans (strain CCUG 39343).
The frozen stock culture was prepared by growing the Candida strain at 34° C. for 48 h on YM-agar. 1-3 colonies from the plates were grown in 6 ml YM-broth at 34° C. for 14 h before freezing in 6% glycerol at −80° C. Each batch of frozen stock culture was then characterized in separate growth experiments using Mueller-Hinton or M19 broth to determine the minimum amount of inoculum giving satisfactory growth after 48 h under the conditions relevant for the MIC assay. This inoculation procedure is used in order to reduce day to day variation in bioassays.
(§3) The micro plates were placed in plastic bags and incubated without shaking at 34° C. The optical density at 600 nm in the microwells was measured after approximately 13, 18, 24 and 34 hours of incubation, and the relative growth yield in each well was calculated based on the growth in the reference groups.

Candida albicans = experiment: Robotic MIC assay with asthma/COPD medicaments (Example 5); settings: Mueller-Hinton broth; for MIC values: 24 hours
Procedure: as §1, §2, §3
The robotic assay described in Example 1 was employed in this Example. […] The concentration utilized for the different components were based on information from Manocha et al. (2006).
In this assay only Mueller-Hinton broth was used since this is the medium specified for standardized MIC assays (Jorgensen et al., 1999).

SMILES: C[C@@H]1[C@H](O)[C@@H](C)/C=C/C=C/CC/C=C/C=C/C=C/C=C/C(O[C@H]2O[C@H](C)[C@@H](O)[C@H](N)[C@@H]2O)CC2O[C@](O)(CC(O)C(O)CCC(O)CC(O)CC(O)CC(=O)O[C@H]1C)CC(O)C2C(=O)O (stereo partly drawn) [Nystatin, nystatin]
- Minimum Inhibitory Concentration (MIC) ([1]; MH, 0% OligoG, 96 hours): 4 µg/mL
- Minimum Inhibitory Concentration (MIC) ([1]; MH, 2% OligoG, 96 hours): 1 µg/mL
- Minimum Inhibitory Concentration (MIC) ([1]; RPMI 2% GLU, 0% OligoG, 72 hours): 8 µg/mL
- Minimum Inhibitory Concentration (MIC) ([1]; RPMI 2% GLU, 0% OligoG, 96 hours): 8 µg/mL
- Minimum Inhibitory Concentration (MIC) ([1]; RPMI 2% GLU, 2% OligoG, 72 hours): 8 µg/mL
- Minimum Inhibitory Concentration (MIC) ([1]; RPMI 2% GLU, 2% OligoG, 96 hours): 8 µg/mL
- Minimum Inhibitory Concentration (MIC) ([1]; RPMI 2% GLU, 6% OligoG, 72 hours): 4 µg/mL
- Minimum Inhibitory Concentration (MIC) ([1]; RPMI 2% GLU, 6% OligoG, 96 hours): 8 µg/mL
- Minimum Inhibitory Concentration (MIC) ([1]; Sabouraud, 0% OligoG, 72 hours): 2 µg/mL
- Minimum Inhibitory Concentration (MIC) ([1]; Sabouraud, 0% OligoG, 96 hours): 2 µg/mL
- Minimum Inhibitory Concentration (MIC) ([1]; Sabouraud, 2% OligoG, 72 hours): 0.5 µg/mL
- Minimum Inhibitory Concentration (MIC) ([1]; Sabouraud, 2% OligoG, 96 hours): 0.5 µg/mL
- Minimum Inhibitory Concentration (MIC) ([1]; Sabouraud, 6% OligoG, 72 hours): 0.25 µg/mL
- Minimum Inhibitory Concentration (MIC) ([1]; Sabouraud, 6% OligoG, 96 hours): 0.25 µg/mL
- Minimum Inhibitory Concentration (MIC) ([1]; YM, 0% OligoG, 72 hours): 8 µg/mL
- Minimum Inhibitory Concentration (MIC) ([1]; YM, 0% OligoG, 96 hours): 16 µg/mL
- Minimum Inhibitory Concentration (MIC) ([1]; YM, 2% OligoG, 72 hours): 4 µg/mL
- Minimum Inhibitory Concentration (MIC) ([1]; YM, 2% OligoG, 96 hours): 8 µg/mL
- effect on MIC when OligoG is added to the medium ([1]; media: RPMI with 2% glucose, MH, Sabouraud, YM): reduction in MIC in all media tested
- Minimum Inhibitory Concentration (MIC) ([2]; M19, NaCl 0 mM): 6.4 µg/mL
- Minimum Inhibitory Concentration (MIC) ([2]; M19, NaCl 30 mM): 3.2 µg/mL
- Minimum Inhibitory Concentration (MIC) ([2]; M19, NaCl 50 mM): 1.6 µg/mL
- Minimum Inhibitory Concentration (MIC) ([2]; M19, OligoG CF 5/20 0%): 6.4 µg/mL
- Minimum Inhibitory Concentration (MIC) ([2]; M19, OligoG CF 5/20 2%): 1.6 µg/mL
- Minimum Inhibitory Concentration (MIC) ([2]; M19, OligoG CF 5/20 6%): 0.8 µg/mL
- Minimum Inhibitory Concentration (MIC) ([2]; M19, OligoG CF 5/20 10%): 0.4 µg/mL
- reduction in MIC values ([2]; M19): 16 ×
- Minimum Inhibitory Concentration (MIC) ([2]; Mueller-Hinton, NaCl 0 mM): 6.4 µg/mL
- Minimum Inhibitory Concentration (MIC) ([2]; Mueller-Hinton, NaCl 10 mM): 6.4 µg/mL
- Minimum Inhibitory Concentration (MIC) ([2]; Mueller-Hinton, NaCl 30 mM): 6.4 µg/mL
- Minimum Inhibitory Concentration (MIC) ([2]; Mueller-Hinton, NaCl 50 mM): 6.4 µg/mL
- Minimum Inhibitory Concentration (MIC) ([2]; Mueller-Hinton, OligoG CF 5/20 0%): 3.2 µg/mL
- Minimum Inhibitory Concentration (MIC) ([2]; Mueller-Hinton, OligoG CF 5/20 2%): 3.2 µg/mL
- Minimum Inhibitory Concentration (MIC) ([2]; Mueller-Hinton, OligoG CF 5/20 6%): 0.8 µg/mL
- Minimum Inhibitory Concentration (MIC) ([2]; Mueller-Hinton, OligoG CF 5/20 10%): 0.4 µg/mL
- reduction in MIC values ([2]; Mueller-Hinton): 8 ×
- effect of addition of OligoG CF-5/20 on MIC values ([2]; both media tested (M19, Mueller-Hinton)): reduction in MIC values
- reduction in MIC values (Candida albicans; addition of 10% OligoG CF-5/20 compared to without OligoG CF-5/20): 4 ×
- MIC values (Candida albicans; no medicament added, G-block 0%): 2 µg/mL (≈ 2.16 µM)
- MIC values (Candida albicans; no medicament added, G-block 2%): 2 µg/mL (≈ 2.16 µM)
- MIC values (Candida albicans; no medicament added, G-block 6%): 1 µg/mL (≈ 1.08 µM)
- MIC values (Candida albicans; no medicament added, G-block 10%): 0.5 µg/mL (≈ 0.54 µM)
- MIC values (Candida albicans; with Budesonide 0.01 mM, G-block 0%): 4 µg/mL (≈ 4.32 µM)
- MIC values (Candida albicans; with Budesonide 0.01 mM, G-block 2%): 4 µg/mL (≈ 4.32 µM)
- MIC values (Candida albicans; with Budesonide 0.01 mM, G-block 6%): 2 µg/mL (≈ 2.16 µM)
- MIC values (Candida albicans; with Budesonide 0.01 mM, G-block 10%): 1 µg/mL (≈ 1.08 µM)
- MIC values (Candida albicans; with Formoterol 0.5 mM (2% DMSO), G-block 0%): 2 µg/mL (≈ 2.16 µM)
- MIC values (Candida albicans; with Formoterol 0.5 mM (2% DMSO), G-block 2%): 2 µg/mL (≈ 2.16 µM)
- MIC values (Candida albicans; with Formoterol 0.5 mM (2% DMSO), G-block 6%): 1 µg/mL (≈ 1.08 µM)
- MIC values (Candida albicans; with Formoterol 0.5 mM (2% DMSO), G-block 10%): 0.5 µg/mL (≈ 0.54 µM)
- MIC values (Candida albicans; with Ipratropium bromide 0.01 mM, G-block 0%): 4 µg/mL (≈ 4.32 µM)
- MIC values (Candida albicans; with Ipratropium bromide 0.01 mM, G-block 2%): 2 µg/mL (≈ 2.16 µM)
- MIC values (Candida albicans; with Ipratropium bromide 0.01 mM, G-block 6%): 1 µg/mL (≈ 1.08 µM)
- MIC values (Candida albicans; with Ipratropium bromide 0.01 mM, G-block 10%): 0.25 µg/mL (≈ 0.27 µM)
- MIC values (Candida albicans; with Ipratropium bromide 1 mM, G-block 0%): 4 µg/mL (≈ 4.32 µM)
- MIC values (Candida albicans; with Ipratropium bromide 1 mM, G-block 2%): 2 µg/mL (≈ 2.16 µM)
- MIC values (Candida albicans; with Ipratropium bromide 1 mM, G-block 6%): 0.5 µg/mL (≈ 0.54 µM)
- MIC values (Candida albicans; with Ipratropium bromide 1 mM, G-block 10%): 0.25 µg/mL (≈ 0.27 µM)
- MIC values (Candida albicans; with Salbutamol 0.01 mM, G-block 0%): 4 µg/mL (≈ 4.32 µM)
- MIC values (Candida albicans; with Salbutamol 0.01 mM, G-block 2%): 2 µg/mL (≈ 2.16 µM)
- MIC values (Candida albicans; with Salbutamol 0.01 mM, G-block 6%): 1 µg/mL (≈ 1.08 µM)
- MIC values (Candida albicans; with Salbutamol 0.01 mM, G-block 10%): 0.25 µg/mL (≈ 0.27 µM)
- MIC values (Candida albicans; with Salbutamol 1 mM, G-block 0%): 2 µg/mL (≈ 2.16 µM)
- MIC values (Candida albicans; with Salbutamol 1 mM, G-block 2%): 2 µg/mL (≈ 2.16 µM)
- MIC values (Candida albicans; with Salbutamol 1 mM, G-block 6%): 1 µg/mL (≈ 1.08 µM)
- MIC values (Candida albicans; with Salbutamol 1 mM, G-block 10%): 0.25 µg/mL (≈ 0.27 µM)
